Consider 23 compounds from patent publication US6784175B2, “Use of substituted 1-amino-5-phenylpentane-3-ol and/or 1-amino-6-phenylhexane-3-ol compounds as medicaments” (Gruenenthal GmbH, priority 2000, dated 2004).

The test system of this experiment is (+)-MK801 binding site of the ionotropic NMDA receptor. The experiment in a line: (3H)-(+)-MK801 receptor bonding test on rat cerebral membrane homogenates. The following applies: 1 nmol/l (3H)-(+)-MK801, rat brain membrane homogenate; for Percentage inhibition of (3H)-(+)-MK801 binding at 10 μM: 10 μmol/l compound, triple determinations; for pKi: calculated from IC50 by Cheng-Prusoff equation. Here is the method:
Research to determine the NMDA antagonistic effect of each compound in general formula I was carried out on cerebral membrane homogenates (homogenate of rat brain without cerebellum, pons and medulla oblongata taken from male Wistar rats (Charles River, Sulzfeld, Germany)).
For this purpose, after separating the cerebellum, pons and medulla oblongata, freshly prepared rat brains were macerated in 50 mmol/l of tris/HCl (pH 7.7) with a Polytron homogeniser (model PT3000, Kinematika AG, Littau, Switzerland) at 6000 revolutions per minute (rpm) for 1 minute with ice cooling and centrifuged for 15 minutes at 4° C. and 60,000 g. After decanting and discarding the supernatant, again placing in 50 mmol/l of tris/HCl (pH 7.7) and macerating the membrane pellet with a homogeniser at 2000 rpm for 1 minute, it was centrifuged again for 15 minutes at 4° C. and 60,000 g. The supernatant was again discarding and the membrane pellet homogenised (2000 rpm for 1 minute) in 50 mmol/l of tris/HCl (pH 7.7) and frozen in aliquots at −70° C.
For the receptor bonding test, each aliquot was defrosted and then centrifuged for 15 minutes at 4° C. and 60,000 g. After decanting and discarding the supernatant, the membrane pellet was taken up with bonding test buffer and homogenised (2000 rpm for 1 minute). The bonding test buffer was 5 mmol/l tris/HCl (pH 7.7) supplemented with 30 μmol/l of glycine and 100 μmol/l of glutamic acid.
1 nmol/l of (^3H)-(+)-MK801 ((5R, 10S)-(+)-5-methyl-10,11-dihydro-5H-dibenzo(a,d)cycloheptane-5,10-imine was used as a radioactively marked ligand (NET-972, NEN, Cologne Germany). The proportion of unspecific bonding was determined in the presence of 10 μmol/l of non-radioactively marked (+)-MK801 (RBI/Sigma, Deisenhofen, Germany). In further batches, each of the compounds of general formula I were added in series of concentrations and the displacement of the radioactive ligand out of its specific bond to the NMDA receptor determined. All the batches were subjected to triple determinations. The batches were each incubated for 40 minutes at 25° C. in a water bath and then harvested for determination of the radioactive ligand bound to the cerebral membrane homogenate by means of filtration through glass-fibre filters (GF/B) (Whatman GF/B, Hassel, Munich, Germany). The radioactivity retained by the glass-fibre filter discs was measured in a β counter (Packard TRI-CARB Liquid Scintillation Analyser 2000CA, Packard Instrument, Meriden, Conn. 06450, USA) after adding a scintillator (“Ready Protein” scintillator, Beckmann Coulter GmhH, Krefeld, Germany).
The percentage inhibition of the specific bonding of the ligand (^3H)-(+)-MK801 in the presence of 10 μmol/l of each compound of general formula I resulting from the triple batches is used as a measure of the affinity of the compound for the (+)-MK801 binding site of the ionotropic NMDA receptor. From batches with concentration series of these compounds of general formula I, the IC50 values (concentration of substituted compounds with 50% displacement of radioactive ligand out of its specific bond) were calculated in accordance with the law of mass action using non-linear regression. From these IC50 values, the Kj values were calculated in accordance with the Cheng-Prusoff equation (Y. Cheng, W. H. Prusoff, 1973, Biochem. Pharmacol., 22, pp 3099-3108).

What is called pKi is −log10 of the Ki, conventionally taken in molar units.

The structures appear in SMILES notation. pKi: −log10 of the molar value. Where a name gives a salt, the structure may show the parent alone.

With `Cc1ccccc1C(C1CCCCC1(O)CCc1cccc(Cl)c1)N(C)C.Cl` (stereo not shown) [Example 26, 1-[2-(3-chlorophenyl)ethyl]-2-(dimethylamino-o-tolylmethyl)cyclohexanol, hydrochloride], the “Percentage inhibition of (3H)-(+)-MK801 binding at 10 μM” value (“Percentage inhibition” below) (hydrochloride, 10 µM) is 89%. Besides, the pKi (hydrochloride) is 5.89.

With `CN(C)C(c1ccc(F)cc1Cl)C1CCCCC1(O)CCc1ccccc1Cl.Cl` (stereo not shown) [Example 42, 2-[(2-chloro4-fluorophenyl)dimethylaminomethyl]-1-[2-(2-chlorophenyl)ethyl]cyclohexanol, hydrochloride], the “Percentage inhibition” value was 85% and the pKi was 5.70.

Regarding `CN(C)C(c1ccccc1)C1CCCCC1(O)CCCc1ccccc1.Cl` (single isomer, unassigned; (+)) [Example 51, (+)-2-(dimethylaminophenylmethyl)-1-(3-phenylpropyl)cyclohexanol, hydrochloride], the “Percentage inhibition” value (hydrochloride, 10 µM) stood at 80%. The pKi (hydrochloride) was 5.64.

`Cc1ccccc1C(C1CCCCC1(O)CCc1ccccc1Cl)N(C)C` (single isomer, unassigned; (+)) [Example 49, (+)-15-1-[2-(2-chlorophenyl)ethyl]-2-(dimethylamino-o-tolylmethylcyclohexanol), hydrochloride]: the “Percentage inhibition” value (hydrochloride, 10 µM) is 93%. Besides, the pKi (hydrochloride) is 5.89.

Turning to `CN(C)C(c1ccccc1C(F)(F)F)C1CCCCC1(O)CCc1ccccc1.Cl` (stereo not shown) [Example 27, 2-[dimethylamino-(2-trifluoromethylphenyl)methyl]-1-phenethylcyclohexanol, hydrochloride], the “Percentage inhibition” value is recorded as 67% and the pKi was 5.38.

For the compound `CN(C)C(c1ccccc1Br)C1CCCCC1(O)CCCc1ccccc1.Cl` (stereo not shown) [Example 40, 2-[(2-bromophenyl)dimethylaminomethyl]-1-(3-phenylpropyl)cyclohexanol, hydrochloride], the “Percentage inhibition” value worked out at 82% and the negative logarithm of the Ki (pKi) was 5.72.

For `CN(C)C(c1ccccc1C(F)(F)F)C1CCCCC1(O)CCc1ccccc1F.Cl` (stereo not shown) [Example 47, 2-[dimethylamino-(2-trifluoromethylphenyl)methyl]-1-[2-(2-fluorophenyl)ethyl]cyclohexanol, hydrochloride], the “Percentage inhibition” value was found to be 90% and the negative-log Ki (pKi) is 5.85.

Turning to `Cc1ccccc1C(C1CCCCC1(O)CCc1cccc(Cl)c1)N(C)C.Cl` (stereo not shown) [Example 16, 1-[2-(3-chlorophenyl)ethyl]-2-(dimethylamino-o-tolylmethyl)cyclohexanol, hydrochloride], under “hydrochloride, 10 µM”, the “Percentage inhibition” value was found to be 92%. Besides, the negative-log Ki (pKi) (hydrochloride) was 5.72.

As to `Cc1ccccc1C(C1CCCCC1(O)CCc1ccccc1Cl)N1CCCCC1.Cl` (stereo not shown) [Example 25, 1-[2-(2-chlorophenyl)ethyl]-2-(piperidine-1-yl-o-tolylmethyl)cyclohexanol, hydrochloride], the “Percentage inhibition” value is 89% and the negative logarithm of the Ki (pKi) is 5.85.

With `Cc1ccccc1C(C1CCCCC1(O)CCCc1ccccc1)N(C)C.Cl` (stereo not shown) [Example 45, 2-(dimethylamino-o-tolylmethyl)1-(3-phenylpropyl)cyclohexanol, hydrochloride], the “Percentage inhibition” value is 91% and the pKi was 5.74.

With `Cc1ccccc1CCC1(O)CCCCC1C(c1ccccc1C)N(C)C.Cl` (stereo not shown) [Example 39, 2-(dimethylamino-o-tolylmethyl]-1-(2-o-tolylethyl)cyclohexanol, hydrochloride], the “Percentage inhibition” value amounted to 90% and the negative-log Ki (pKi) was 5.85.

On to `Cc1cccc(C(C2CCCCC2(O)CCc2ccccc2Cl)N(C)C)c1.Cl` (stereo not shown) [Example 20, 1-[2-(2-chlorophenyl)ethyl]-2-(dimethylamino-m-tolylmethyl)cyclohexanol, hydrochloride], for which the “Percentage inhibition” value came to 62% and the pKi was 5.37.

`CN(C)C(c1ccccc1Br)C1CCCCC1(O)CCc1ccccc1F.Cl` (stereo not shown) [Example 34, 2-[(2-bromophenyl)dimethylaminomethyl]-1-[2-(2-fluorophenyl)ethyl]cyclohexanol, hydrochloride]: the “Percentage inhibition” value is 95% and the negative logarithm of the Ki (pKi) is 6.40.

With `Cc1ccccc1C(C1CCCCC1(O)CCc1ccccc1F)N(C)C.Cl` (stereo not shown) [Example 30, 2-(dimethylamino-o-tolylmethyl)-1-[2-(2-fluorophenyl)ethyl]cyclohexanol, hydrochloride], the “Percentage inhibition” value stood at 105% and the pKi was 6.52.

Take `CN(C)C(c1ccccc1Cl)C1CCCCC1(O)CCc1ccccc1F.Cl` (single isomer, unassigned; (+)) [Example 53, (+)-2-[(2-chlorophenyl)dimethylaminomethyl]-1-[2-(2-fluorophenyl)ethyl]cyclohexanol, hydrochloride]: the “Percentage inhibition” value (hydrochloride, 10 µM) turned out to be 104%. The pKi (hydrochloride) was 6.30.

For `CN(C)C(c1cccc(F)c1)C1CCCCC1(O)CCc1ccccc1Cl.Cl` (stereo not shown) [Example 22, 1-[2-(2-chlorophenyl)ethyl]-2-(dimethylamino-(3-fluorophenyl)methyl]cyclohexanol, hydrochloride], the “Percentage inhibition” value is reported as 74% and the pKi is 5.52.

Consider `Cc1ccccc1CCC1(O)CCCCC1C(c1ccccc1Br)N(C)C.Cl` (stereo not shown) [Example 38, 2-[(2-bromophenyl)dimethylaminomethyl]-1-(2-o-tolylethyl)cyclohexanol, hydrochloride], for which the “Percentage inhibition” value turned out to be 93% and the pKi is 5.64.

Consider `CN(C)C(c1ccccc1Cl)C1CCCCC1(O)CCc1ccccc1F.Cl` (single isomer, unassigned; (-)) [Example 52, (−)-2-[(2-chlorophenyl)dimethylaminomethyl]-1-[2-(2-fluorophenyl)ethyl]cyclohexanol, hydrochloride], for which the “Percentage inhibition” value (hydrochloride, 10 µM) was found to be 105%. In addition, where the note is “hydrochloride”, the pKi is 6.70.

`CN(C)C(c1ccc(F)cc1Cl)C1CCCCC1(O)CCc1ccccc1F.Cl` (stereo not shown) [Example 41, 2-[(2-chloro4-fluorophenyl)dimethylaminomethyl]-1-[2-(2-fluorophenyl)ethyl]cyclohexanol, hydrochloride]: the “Percentage inhibition” value amounted to 94% and the pKi was 5.92.

Regarding `Cc1ccccc1CCC1(O)CCCCC1C(c1ccccc1F)N(C)C.Cl` (stereo not shown) [Example 43, 2-[dimethylamino-(2-fluorophenyl)methyl]-1-(2-o-tolylethyl)cyclohexanol, hydrochloride], the “Percentage inhibition” value worked out at 92% and the pKi was 5.85.

Take `CN(C)C(c1ccccc1F)C1CCCCC1(O)CCc1ccc(F)cc1.Cl` (stereo not shown) [Example 17, 2-[dimethylamino-(2-fluorophenyl)methyl]-1-[2-(4-fluorophenyl)ethyl]cyclohexanol, hydrochloride]: the “Percentage inhibition” value worked out at 54% and the pKi is 5.24.

As to `CN(C)C(c1ccccc1F)C1CCCCC1(O)CCc1cccc(Cl)c1.Cl` (stereo not shown) [Example 21, 1-[2-(3-chlorophenyl)ethyl]-2-(dimethylamino-(2-fluorophenyl)methyl]cyclohexanol, hydrochloride], the “Percentage inhibition” value was determined as 90% and the pKi was 5.68.

With `CN(C)C(c1ccccc1F)C1CCCCC1(O)CCCc1ccccc1.Cl` (stereo not shown) [Example 44, 2-[dimethylamino-(2-fluorophenyl)methyl]-1-(3-phenylpropyl)cyclohexanol, hydrochloride], the “Percentage inhibition” value is recorded as 91% and the pKi is 5.85.
